# Assay results from patent US10562909B2, “Fused quadracyclic compounds, compositions and uses thereof” (Tabomedex Biosciences, LLC, priority 2016, dated 2020).
# pIC50: −log10 of the molar value.
# Molecular target: MAPKAPK2 (Homo sapiens, UniProt P49137)
# Experiment: MK2 Enzymatic Assay
# Assay type: biochemical
# Details: 0.5 nM MAPKAPK2, 3 μM ATP, 2 μM Ser/Thr4 peptide, 23° C., values given as concentration bins
# Procedure: Briefly, 5 μL of 2× (4 μM) 100% phosphorylation peptide was delivered into the control wells of a 384-well assay plate. 5 μL of 2× (1 nM) MAPKAPK2 and 2× peptide (4 μM) mixture in assay buffer was dispensed to remaining columns of assay plate using Eppendorf electronic multiple channel pipette. The assay plate was incubated for 20 minutes. 5 μL of 2× ATP (6 μM) in assay buffer was dispensed to each well and then the assay plate was lightly centrifuged. The assay plate was incubated for an additional 120 minutes.
# 5 μL of development reagent A was dispensed to all wells using Eppendorf electronic multiple channel pipette. After incubating the development reaction for 120 min, plates were read on a Perkin Elmer Envision instrument.
# Percent phosphorylation was calculated using the following formula:
# [formula] Where • C100%=Average Coumarin emission signal of the 100% Phos. Control • C0%=Average Coumarin emission signal of the 0% Phos. Control • F100%=Average Fluorescein emission signal of the 100% Phos. Control • F0%=Average Flurescein emission signal of the 0% Phos. Control
# Chain of MAPKAPK2 (P49137 whole entry, species assumed): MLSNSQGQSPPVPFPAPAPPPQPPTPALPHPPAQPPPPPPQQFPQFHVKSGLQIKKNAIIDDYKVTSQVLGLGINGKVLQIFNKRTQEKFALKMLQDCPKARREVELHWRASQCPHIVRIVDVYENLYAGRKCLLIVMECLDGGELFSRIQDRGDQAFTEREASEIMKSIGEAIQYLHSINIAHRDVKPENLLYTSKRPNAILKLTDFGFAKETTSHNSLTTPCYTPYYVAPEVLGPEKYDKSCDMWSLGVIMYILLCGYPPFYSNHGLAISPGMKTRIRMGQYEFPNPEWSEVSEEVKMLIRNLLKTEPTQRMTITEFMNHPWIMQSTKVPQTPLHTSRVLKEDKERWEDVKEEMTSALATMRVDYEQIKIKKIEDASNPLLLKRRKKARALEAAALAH
row,SMILES,pIC50
1,"CN(C)C[C@@H]1CN(c2ccc3c(c2)Cn2cc(-c4ccc(C#N)cc4)cc2-c2nccn2-3)C[C@H]1O [Compound 138, 4-(7-((3R,4S)-3-((dimethylamino)methyl)-4-hydroxypyrrolidin-1-yl)-9H-benzo[e]imidazo[2,1-c]pyrrolo[1,2-a][1,4]diazepin-12-yl)benzonitrile]",> 7.30
2,"CNCC1CN(c2cc3c(cn2)-n2cnnc2-c2cc(-c4ccc(C#N)cc4)cn2C3)C1 [Compound 315, 4-(7-(3-((methylamino)methyl)azetidin-1-yl)-9H-pyrido[3,4-e]pyrrolo[1,2-a][1,2,4]triazolo[3,4-c][1,4]diazepin-12-yl)benzonitrile]",6.70 to 7.00
3,"CNCc1cnc2n1-c1ccc(N3CC[C@@H](N(C)C)C3)cc1Cn1cc(-c3ccc(C#N)cc3)cc1-2 [Compound 276, 4-(7-((R)-3-(dimethylamino)pyrrolidin-1-yl)-3-((methylamino)methyl)-9H-benzo[e]imidazo[2,1-c]pyrrolo[1,2-a][1,4]diazepin-12-yl)benzonitrile]",> 7.30
4,"N#Cc1ccc(-c2cc3n(c2)Cc2cc(N4CC[C@H]5NCC[C@@H]54)ccc2-n2nnnc2-3)cc1 (racemic) [Compound 232, 4-(7-(trans-hexahydropyrrolo[3,2-b]pyrrol-1(2H)-yl)-9H-benzo[e]pyrrolo[1,2-a]tetrazolo[5,1-c][1,4]diazepin-12-yl)benzonitrile]",> 7.30
5,"CN(C)C[C@@H]1CCN(c2ccc3c(c2)Cn2cc(-c4ccc(C#N)cc4)cc2-c2nnnn2-3)C1 [Compound 241, (S)-4-(7-(3-((dimethylamino)methyl)pyrrolidin-1-yl)-9H-benzo[e]pyrrolo[1,2-a]tetrazolo[5,1-c][1,4]diazepin-12-yl)benzonitrile]",> 7.30
6,"N#Cc1ccc(-c2cc3n(c2)Cc2nc(N4CC[C@@H](CN5CCC(O)CC5)C4)ccc2-n2ccnc2-3)cc1 [Compound 308, (S)-4-(7-(3-((4-hydroxypiperidin-1-yl)methyl)pyrrolidin-1-yl)-9H-imidazo[2,1-c]pyrido[3,2-e]pyrrolo[1,2-a][1,4]diazepin-12-yl)benzonitrile]",> 7.30
7,"COCc1cnc2n1-c1ccc(N3CC[C@@H](N(C)C)C3)cc1Cn1cc(-c3ccc(C#N)cc3)cc1-2 [Compound 278, 4-(7-((R)-3-(dimethylamino)pyrrolidin-1-yl)-3-(methoxymethyl)-9H-benzo[e]imidazo[2,1-c]pyrrolo[1,2-a][1,4]diazepin-12-yl)benzonitrile]",> 7.30
8,"CN(C)[C@H]1CN(c2ccc3c(n2)Cn2cc(-c4ccc(C#N)cc4)cc2-c2nccn2-3)C[C@@H]1O [Compound 301, 4-(7-((3S,4S)-3-(dimethylamino)-4-hydroxypyrrolidin-1-yl)-9H-imidazo[2,1-c]pyrido[3,2-e]pyrrolo[1,2-a][1,4]diazepin-12-yl)benzonitrile]",6.70 to 7.00
9,"CNCC1CCN(c2ccc3c(c2)Cn2cc(-c4ccc(F)cc4)cc2-c2nccn2-3)C1 (stereo not shown) [Compound 342, 1-(1-(12-(4-fluorophenyl)-9H-benzo[e]imidazo[2,1-c]pyrrolo[1,2-a][1,4]diazepin-7-yl)pyrrolidin-3-yl)-N-methylmethanamine]",> 7.30
10,"N#Cc1ccc(-c2cc3n(c2)Cc2cc(N4CCC5(CNC5)C4)ccc2-n2ncnc2-3)cc1 [Compound 256, 4-(7-(2,6-diazaspiro[3.4]octan-6-yl)-9H-benzo[e]pyrrolo[1,2-a][1,2,4]triazolo[5,1-c][1,4]diazepin-12-yl)benzonitrile]",> 7.30
11,"C[C@H](CO)NC[C@@H]1CCN(c2ccc3c(c2)Cn2cc(-c4ccc(C#N)cc4)cc2-c2nccn2-3)C1 [Compound 135, 4-(7-((S)-3-((((R)-1-hydroxypropan-2-yl)amino)methyl)pyrrolidin-1-yl)-9H-benzo[e]imidazo[2,1-c]pyrrolo[1,2-a][1,4]diazepin-12-yl)benzonitrile]",> 7.30
12,"N#Cc1ccc(-c2cc3n(c2)Cc2cc(N4CC[C@H](CN5CCC(O)CC5)C4)ccc2-n2ccnc2-3)cc1 [Compound 143, (R)-4-(7-(3-((4-hydroxypiperidin-1-yl)methyl)pyrrolidin-1-yl)-9H-benzo[e]imidazo[2,1-c]pyrrolo[1,2-a][1,4]diazepin-12-yl)benzonitrile]",> 7.30
13,"CNCC1CN(c2ccc3c(n2)Cn2cc(-c4ccc(C#N)cc4)cc2-c2nccn2-3)C1 [Compound 295, 4-(7-(3-((methylamino)methyl)azetidin-1-yl)-9H-imidazo[2,1-c]pyrido[3,2-e]pyrrolo[1,2-a] [1,4]diazepin-12-yl)benzonitrile]",> 7.30

# More lines, now with the values ahead:
row,pIC50,SMILES
1,> 7.30,"CN(C)C[C@@H]1CN(c2ccc3c(c2)Cn2cc(-c4ccc(F)cc4)cc2-c2nccn2-3)C[C@@H]1O [Compound 350, (3R,4R)-4-((dimethylamino)methyl)-1-(12-(4-fluorophenyl)-9H-benzo[e]imidazo[2,1-c]pyrrolo[1,2-a][1,4]diazepin-7-yl)pyrrolidin-3-ol]"
2,> 7.30,"CNC[C@H]1CN(c2ccc3c(c2)Cn2cc(-c4ccc(F)cc4)cc2-c2nccn2-3)C[C@H]1F [Compound 466, 1-((3S,4S)-4-fluoro-1-(12-(4-fluorophenyl)-9H-benzo[e]imidazo[2,1-c]pyrrolo[1,2-a][1,4]diazepin-7-yl)pyrrolidin-3-yl)-N-methylmethanamine]"
3,> 7.30,"C[C@@H](CO)N1CC2(CCN(c3ccc4c(c3)Cn3cc(-c5ccc(F)cc5)cc3-c3nccn3-4)C2)C1 [Compound 371, (S)-2-(6-(12-(4-fluorophenyl)-9H-benzo[e]imidazo[2,1-c]pyrrolo[1,2-a][1,4]diazepin-7-yl)-2,6-diazaspiro[3.4]octan-2-yl)propan-1-ol]"
4,7.00 to 7.30,"N[C@H]1CCCN(c2ccc3c(c2)Cn2cc(-c4ccc(F)cc4)cc2-c2nnnn2-3)C1 [Compound 390, (S)-1-(12-(4-fluorophenyl)-9H-benzo[e]pyrrolo[1,2-a]tetrazolo[5,1-c][1,4]diazepin-7-yl) piperidin-3-amine]"
5,6.70 to 7.00,"O=C(O)CN1CC2(CCN(c3ccc4c(c3)Cn3cc(-c5ccc(F)cc5)cc3-c3nccn3-4)C2)C1 [Compound 478, 2-(6-(12-(4-fluorophenyl)-9H-benzo[e]imidazo[2,1-c]pyrrolo[1,2-a][1,4]diazepin-7-yl)-2,6-diazaspiro[3.4]octan-2-yl)acetic acid]"
6,> 7.30,"Fc1ccc(-c2cc3n(c2)Cc2cc(N4CCC5(CNC5)C4)ccc2-n2nnnc2-3)cc1 [Compound 398, 12-(4-fluorophenyl)-7-(2,6-diazaspiro[3.4]octan-6-yl)-9H-benzo[e]pyrrolo[1,2-a]tetrazolo[5,1-c][1,4]diazepine]"
7,7.00 to 7.30,"CN(C)[C@@H]1CN(c2ccc3c(c2)Cn2cc(-c4ccc(F)cc4)cc2-c2ncnn2-3)C[C@H]1O [Compound 417, (3R,4R)-4-(dimethylamino)-1-(12-(4-fluorophenyl)-9H-benzo[e]pyrrolo[1,2-a][1,2,4]triazolo[5,1-c][1,4]diazepin-7-yl)pyrrolidin-3-ol]"
8,7.00 to 7.30,"NC[C@H]1CN(c2ccc3c(c2)Cn2cc(-c4ccc(F)cc4)cc2-c2nccn2-3)C[C@@H]1O [Compound 365, (3R,4S)-4-(aminomethyl)-1-(12-(4-fluorophenyl)-9H-benzo[e]imidazo[2,1-c]pyrrolo[1,2-a] [1,4]diazepin-7-yl)pyrrolidin-3-ol]"
9,> 7.30,"CN(C)[C@@H]1CCN(c2ccc3c(c2)Cn2cc(-c4ccc(F)cc4)cc2-c2nnnn2-3)C1 [Compound 406, (R)-1-(12-(4-fluorophenyl)-9H-benzo[e]pyrrolo[1,2-a]tetrazolo[5,1-c][1,4]diazepin-7-yl)-N,N-dimethylpyrrolidin-3-amine]"
10,> 7.30,"CNC[C@@H]1CN(c2ccc3c(c2)Cn2cc(-c4ccc(F)cc4)cc2-c2ncnn2-3)C[C@@H]1F [Compound 499, 1-((3R,4R)-4-fluoro-1-(12-(4-fluorophenyl)-9H-benzo[e]pyrrolo[1,2-a][1,2,4]triazolo[5,1-c] [1,4]diazepin-7-yl)pyrrolidin-3-yl)-N-methylmethanamine]"
11,> 7.30,"C[C@H](CO)NC[C@H]1CCN(c2ccc3c(n2)Cn2cc(-c4ccc(F)cc4)cc2-c2nccn2-3)C1 [Compound 434, (R)-2-((((R)-1-(12-(4-fluorophenyl)-9H-imidazo[2,1-c]pyrido[3,2-e]pyrrolo[1,2-a][1,4]diazepin-7-yl)pyrrolidin-3-yl)methyl)amino)propan-1-ol]"
12,> 7.30,"C[C@H](CO)NC[C@@H]1CCN(c2ccc3c(c2)Cn2cc(-c4ccc(F)cc4)cc2-c2nccn2-3)C1 [Compound 354, (R)-2-((((S)-1-(12-(4-fluorophenyl)-9H-benzo[e]imidazo[2,1-c]pyrrolo[1,2-a][1,4]diazepin-7-yl)pyrrolidin-3-yl)methyl)amino)propan-1-ol]"
13,7.00 to 7.30,"CN(C)C[C@H]1CCN(c2ccc3c(c2)Cn2cc(-c4ccc(F)cc4)cc2-c2nnnn2-3)C1 [Compound 394, (R)-1-(1-(12-(4-fluorophenyl)-9H-benzo[e]pyrrolo[1,2-a]tetrazolo[5,1-c][1,4]diazepin-7-yl)pyrrolidin-3-yl)-N,N-dimethylmethanamine]"
14,> 7.30,"CN(C)C[C@H]1CN(c2ccc3c(n2)Cn2cc(-c4ccc(F)cc4)cc2-c2nccn2-3)C[C@@H]1O [Compound 435, (3R,4S)-4-((dimethylamino)methyl)-1-(12-(4-fluorophenyl)-9H-imidazo[2,1-c]pyrido[3,2-e]pyrrolo[1,2-a][1,4]diazepin-7-yl)pyrrolidin-3-ol]"
15,> 7.30,"c1ccc(-c2cc3n(c2)Cc2cc(N4CCC5(CNC5)C4)ccc2-n2ccnc2-3)cc1 [Compound 462, 12-phenyl-7-(2,6-diazaspiro[3.4]octan-6-yl)-9H-benzo[e]imidazo[2,1-c]pyrrolo[1,2-a][1,4]diazepine]"
